Measurements: US20220323445A1, “REDUCING IMMUNOGENICITY TO PEGLOTICASE” (Horizon Therapeutics Ireland DAC, priority 2020, published 2022)
Read-outs that look alike come from different tables or passages of the source.

What was measured:
[1] = system: patients with uncontrolled gout; conditions: mITT N = 14, PY of MTX = 1.0
Text: As used herein, an “adverse event” or “AE” refers to any untoward medical occurrence associated with the use of a drug in humans, whether it is considered drug-related or not. An AE or suspected adverse reaction is considered a “serious adverse event” or “SAE” if, in the view of either the Investigator or Sponsor, it results in any of the following outcomes: (1) Death, (2) Life-threatening: an AE is considered “life-threatening” if, in the view of either the Investigator or Sponsor, its occurrence places the subject or subject at immediate risk of death. […] (5) A congenital anomaly/birth defect; (6) Important medical events that may not result in death, be life-threatening, or require hospitalization may be considered serious when, based upon appropriate medical judgment, they may jeopardize the patient or subject and may require medical or surgical intervention to prevent one of the outcomes listed in this definition.
Safety Variables: Safety was assessed via AE and concomitant medication use monitoring, physical examinations, vital signs, clinical safety laboratory evaluations (hematology, chemistry, urine uric acid:creatinine ratio), pregnancy testing (if applicable), electrocardiograms (ECGs), and AEs of special interest (i.e., IRs, anaphylaxis, gout flares, and cardiovascular events).
AEs of special interest may include IRs, anaphylaxis, gout flares, and cardiovascular events.
Severity in accordance with the disclosure is reported according to the following: Grade 1 (Mild)—No interference with daily activity. Grade 2 (Moderate)—Some interference with daily activity but medical intervention not required (e.g., doctor visit and/or medication); over the counter medicine permitted. Grade 3 (Severe)—Prevents daily activity and requires medical intervention (e.g., doctor visit and/or medication). Grade 4 (Potentially Life-threatening)—Emergency room visit or hospitalization.
An AE was defined as any untoward event, whether or not it was considered related to the use of pegloticase or MTX. Any worsening (i.e., any clinically significant adverse change in frequency or intensity) of a preexisting condition which was temporally associated with the use of pegloticase or MTX was also considered an AE. Abnormal laboratory values or test results constitute AEs only if they induce clinical signs or symptoms or require therapy, and were recorded on the AE CRF under the signs, symptoms or were associated with diagnoses associated with them. Screening conditions were not considered AE; however, worsening of a preexisting condition may be considered an AE. AEs were collected starting at the baseline, Visit 1.
TEAEs during the Pegloticase+IMM Period were defined as events that occur after the start of the first pegloticase infusion through 30 days after the last dose of pegloticase and/or MTX or placebo for MTX (whichever was later). TEAEs that occur during the MTX Tolerability Assessment Period prior to randomization (Weeks −6 to −4) was summarized separately for the MTX population. […] AEs that occur more than 30 days after the last dose of pegloticase and/or MTX or placebo for MTX through the 6-month follow-up visit was also summarized.

[2] = cited from earlier work
[3] = system: patients with uncontrolled gout; assay: Adverse events of special interest: gout flares during the Methotrexate Run-in Period; type: in vivo, human; conditions: for Number of Gout Flares per Subject among subjects with at least one gout flare, Mean / Number of Gout Flares per Subject among subjects with at least one gout flare, Median / Gout Flares, % of subjects / Subjects with 1 gout flare, % / Subjects with 2 gout flares, %: Methotrexate Run-in Period
Text: As used herein, a “gout flare” refers to a manifestation of physiological or biochemical symptoms of gout, which is a possible side effect or AE associated with treatment with KXX. A gout flare may produce burning itching, tingling, or stiffness in the joints, particularly the peripheral joints. An individual may also experience redness, swelling, and pain in the joints. In accordance with the disclosure, gout flares may initially increase when starting treatment with KXX. For such individuals, medications to help reduce flares may be taken regularly for the first few months after KXX is started. […] In some embodiments, gout flare prophylaxis may include, but is not limited to, In some embodiments, prophylactic treatment may be given prior to an infusion of KXX, for example one week prior to treatment with KXX.
Gout Flare Treatment—An increase in gout flares was frequently observed upon initiation of anti-hyperuricemic therapy, including treatment with pegloticase. Participants were instructed to contact the site within 12 hours of the onset of symptoms. Gout flares were confirmed through questioning or direct observation. All participants who experience a gout flare during the study were prescribed anti-inflammatory treatment (e.g., corticosteroids, NSAIDs, colchicine) as deemed clinically indicated by the study physician.

## CN(Cc1cnc2nc(N)nc(N)c2n1)c1ccc(C(=O)N[C@@H](CCC(=O)O)C(=O)O)cc1 [MTX, methotrexate]
[1]
  Eye Disorders, Incidence Rate: 1.0 Events/PY of MTX
  Gastrointestinal Disorders, Incidence Rate: 6.0 Events/PY of MTX
  Gout, Incidence Rate: 6.0 Events/PY of MTX
  Headache, Incidence Rate: 1.0 Events/PY of MTX
  Infections And Infestations, Incidence Rate: 2.0 Events/PY of MTX
  Leukopenia, Incidence Rate: 1.0 Events/PY of MTX
  Metabolism And Nutrition Disorders, Incidence Rate: 6.0 Events/PY of MTX
  Nasopharyngitis, Incidence Rate: 1.0 Events/PY of MTX
  Nausea, Incidence Rate: 2.0 Events/PY of MTX
  Nervous System Disorders, Incidence Rate: 1.0 Events/PY of MTX
  Neutropenia, Incidence Rate: 1.0 Events/PY of MTX
  Pruritus, Incidence Rate: 1.0 Events/PY of MTX
  Respiratory, Thoracic And Mediastinal Disorders, Incidence Rate: 1.0 Events/PY of MTX
  Skin And Subcutaneous Tissue Disorders, Incidence Rate: 1.0 Events/PY of MTX
[2]; RA
  Increased susceptibility to infection: < 1%
  Leukopenia: 28%
  Nausea and vomiting: 12%
[2]; renal transplant
  Increased susceptibility to infection: 20%
  Leukopenia: > 50%
  neoplasia (lymphoma): 0.5%
  neoplasia (other than lymphoma): 3%
[3]; Day 1, ITT
  Maximum Reported Intensity of Flare (0-10 scale), Max: 8
  Maximum Reported Intensity of Flare (0-10 scale), Mean: 5.8
  Maximum Reported Intensity of Flare (0-10 scale), Median: 5.5
  Maximum Reported Intensity of Flare (0-10 scale), Min: 4
[3]; Day 1, ITT, 14 assessed
  Any Gout Flares Since the Last Visit, %: (57.1) %
  Pain at rest >3 out of 10, %: (57.1) %
  Pain different than normal, %: (50.0) %
  Swelling in Joints, %: (42.9) %
[3]; Day 1, mITT
  Maximum Reported Intensity of Flare (0-10 scale), Max: 8
  Maximum Reported Intensity of Flare (0-10 scale), Mean: 5.8
  Maximum Reported Intensity of Flare (0-10 scale), Median: 5.5
  Maximum Reported Intensity of Flare (0-10 scale), Min: 4
[3]; Day 1, mITT, 14 assessed
  Any Gout Flares Since the Last Visit, %: (57.1) %
  Pain at rest >3 out of 10, %: (57.1) %
  Pain different than normal, %: (50.0) %
  Swelling in Joints, %: (42.9) %
[3]; ITT
  Number of Gout Flares per Subject among subjects with at least one gout flare, Mean: 1.2
  Number of Gout Flares per Subject among subjects with at least one gout flare, Median: 1.0
[3]; ITT N = 15
  Gout Flares, % of subjects: (33.3) %
  Subjects with 1 gout flare, %: (26.7) %
  Subjects with 2 gout flares, %: (6.7) %
[3]; mITT
  Number of Gout Flares per Subject among subjects with at least one gout flare, Mean: 1.2
  Number of Gout Flares per Subject among subjects with at least one gout flare, Median: 1.0
[3]; mITT N = 14
  Gout Flares, % of subjects: (35.7) %
  Subjects with 1 gout flare, %: (28.6) %
  Subjects with 2 gout flares, %: (7.1) %
[3]; Week −4, ITT
  Maximum Reported Intensity of Flare (0-10 scale), Max: 10
  Maximum Reported Intensity of Flare (0-10 scale), Mean: 8.5
  Maximum Reported Intensity of Flare (0-10 scale), Median: 8.0
  Maximum Reported Intensity of Flare (0-10 scale), Min: 7
[3]; Week −4, ITT, 14 assessed
  Any Gout Flares Since the Last Visit, %: (57.1) %
  Pain at rest >3 out of 10, %: (50.0) %
  Pain different than normal, %: (42.9) %
  Swelling in Joints, %: (50.0) %
[3]; Week −4, mITT
  Maximum Reported Intensity of Flare (0-10 scale), Max: 10
  Maximum Reported Intensity of Flare (0-10 scale), Mean: 8.2
  Maximum Reported Intensity of Flare (0-10 scale), Median: 8.0
  Maximum Reported Intensity of Flare (0-10 scale), Min: 7
[3]; Week −4, mITT, 13 assessed
  Any Gout Flares Since the Last Visit, %: (53.8) %
  Pain at rest >3 out of 10, %: (46.2) %
  Pain different than normal, %: (38.5) %
  Swelling in Joints, %: (46.2) %
